The record followed here is the NIST ThermoML archive (doi:10.1016/j.jct.2011.04.018).

A short description of this series: activity coefficient (dimensionless); of the first substance listed, at infinite dilution; xn = mol fraction of the nth substance listed. To be noted: 101 kPa, Liquid, Chromatography, x1 = 0.

± gives the expanded uncertainty stated by the source.

For `c1ccsc1` [thiophene] + O=S(=O)([N-]S(=O)(=O)C(F)(F)F)C(F)(F)F.OCCC[n+]1ccccc1, the activity coefficient is, setting by setting: (318.15 K) 1.27 ± 0.08; (328.15 K) 1.28 ± 0.08; (338.15 K) 1.29 ± 0.08; (348.15 K) 1.29 ± 0.08; (358.15 K) 1.3 ± 0.08; (368.15 K) 1.31 ± 0.09. Besides, where the note is “378.15 K”, the activity coefficient stood at 1.31 ± 0.09.

On to `C1CCCCCC1` [cycloheptane] + O=S(=O)([N-]S(=O)(=O)C(F)(F)F)C(F)(F)F.OCCC[n+]1ccccc1, for which the activity coefficient was determined as 36.3 ± 2.5 (308.15 K); 32.8 ± 2.2 (318.15 K); 29.7 ± 2 (328.15 K); 26.9 ± 1.8 (338.15 K); 24.7 ± 1.7 (348.15 K); 22.9 ± 1.6 (358.15 K). The activity coefficient (368.15 K) amounted to 21.2 ± 1.4.

As to `Cc1cccc(C)c1` [1,3-dimethylbenzene] + O=S(=O)([N-]S(=O)(=O)C(F)(F)F)C(F)(F)F.OCCC[n+]1ccccc1, the activity coefficient is, setting by setting: (318.15 K) 3.58 ± 0.24; (328.15 K) 3.58 ± 0.24; (338.15 K) 3.59 ± 0.24; (348.15 K) 3.6 ± 0.25; (358.15 K) 3.6 ± 0.25; (368.15 K) 3.61 ± 0.25. Under “378.15 K”, the activity coefficient worked out at 3.62 ± 0.25.

Regarding `CCC(=O)CC` [pentan-3-one] + O=S(=O)([N-]S(=O)(=O)C(F)(F)F)C(F)(F)F.OCCC[n+]1ccccc1, the activity coefficient is, setting by setting: (318.15 K) 0.936 ± 0.059; (328.15 K) 0.963 ± 0.061; (338.15 K) 0.991 ± 0.062; (348.15 K) 1.02 ± 0.06; (358.15 K) 1.04 ± 0.07; (368.15 K) 1.07 ± 0.07. For the setting “378.15 K”, the activity coefficient is 1.09 ± 0.07.

On to `CC1CCCCC1` [methylcyclohexane] + O=S(=O)([N-]S(=O)(=O)C(F)(F)F)C(F)(F)F.OCCC[n+]1ccccc1, for which the activity coefficient came to 38.7 ± 2.6 (308.15 K); 35.2 ± 2.4 (318.15 K); 31.9 ± 2.2 (328.15 K); 29 ± 2 (338.15 K); 26.8 ± 1.8 (348.15 K); 24.7 ± 1.7 (358.15 K). Besides, the activity coefficient (368.15 K) came to 22.9 ± 1.6.

On to `C1CCOC1` [tetrahydrofuran] + O=S(=O)([N-]S(=O)(=O)C(F)(F)F)C(F)(F)F.OCCC[n+]1ccccc1, for which the activity coefficient was determined as 0.695 ± 0.047 (318.15 K); 0.727 ± 0.048 (328.15 K); 0.757 ± 0.05 (338.15 K); 0.784 ± 0.051 (348.15 K); 0.812 ± 0.053 (358.15 K); 0.839 ± 0.054 (368.15 K). The activity coefficient (378.15 K) is 0.866 ± 0.055.

With `C=CCCC` [1-pentene] + O=S(=O)([N-]S(=O)(=O)C(F)(F)F)C(F)(F)F.OCCC[n+]1ccccc1, the activity coefficient was determined as 14.2 ± 1 (308.15 K); 13.5 ± 0.9 (318.15 K); 12.7 ± 0.9 (328.15 K); 12 ± 0.8 (338.15 K); 11.5 ± 0.8 (348.15 K).

Turning to `C=CCCCCC` [1-heptene] + O=S(=O)([N-]S(=O)(=O)C(F)(F)F)C(F)(F)F.OCCC[n+]1ccccc1, the activity coefficient is 35.7 ± 2.4 (308.15 K); 33.1 ± 2.3 (318.15 K); 30.7 ± 2.1 (328.15 K); 28.5 ± 1.9 (338.15 K); 26.7 ± 1.8 (348.15 K); 25.2 ± 1.7 (358.15 K). Also, under “368.15 K”, the activity coefficient worked out at 23.7 ± 1.6.

For the molecule `C1=CCCCC1` [cyclohexene] + O=S(=O)([N-]S(=O)(=O)C(F)(F)F)C(F)(F)F.OCCC[n+]1ccccc1, the activity coefficient reads like this: (308.15 K) 11.7 ± 0.8; (318.15 K) 11 ± 0.8; (328.15 K) 10.4 ± 0.7; (338.15 K) 9.81 ± 0.67; (348.15 K) 9.31 ± 0.64; (358.15 K) 8.92 ± 0.61. Moreover, the activity coefficient (368.15 K) was 8.52 ± 0.58.

`C=CCCCCCCCC` [1-decene] + O=S(=O)([N-]S(=O)(=O)C(F)(F)F)C(F)(F)F.OCCC[n+]1ccccc1: the activity coefficient by setting is: (308.15 K) 142 ± 10; (318.15 K) 128 ± 9; (328.15 K) 115 ± 8; (338.15 K) 104 ± 7; (348.15 K) 95.2 ± 6.5; (358.15 K) 86.6 ± 5.9. For the same molecule, for the setting “368.15 K”, the activity coefficient stood at 79.7 ± 5.5.

Regarding `C=CCCCCCC` [oct-1-ene] + O=S(=O)([N-]S(=O)(=O)C(F)(F)F)C(F)(F)F.OCCC[n+]1ccccc1, the activity coefficient (308.15 K) stood at 58 ± 4; the activity coefficient (318.15 K) came out at 53 ± 3.6; the activity coefficient (328.15 K) turned out to be 48.5 ± 3.3; the activity coefficient (338.15 K) was 44.4 ± 3; the activity coefficient (348.15 K) amounted to 41.1 ± 2.8; the activity coefficient (358.15 K) was 38.1 ± 2.6. Also, the activity coefficient (368.15 K) was 35.6 ± 2.4.

Take `CCCCO` [butan-1-ol] + O=S(=O)([N-]S(=O)(=O)C(F)(F)F)C(F)(F)F.OCCC[n+]1ccccc1: the activity coefficient was 2.27 ± 0.15 (318.15 K); 2.14 ± 0.15 (328.15 K); 2.02 ± 0.14 (338.15 K); 1.91 ± 0.13 (348.15 K); 1.82 ± 0.12 (358.15 K); 1.73 ± 0.12 (368.15 K). The activity coefficient (378.15 K) worked out at 1.67 ± 0.11.

As for `Cc1ccccc1` [toluene] + O=S(=O)([N-]S(=O)(=O)C(F)(F)F)C(F)(F)F.OCCC[n+]1ccccc1, the activity coefficient reads like this: (318.15 K) 2.36 ± 0.16; (328.15 K) 2.37 ± 0.16; (338.15 K) 2.38 ± 0.16; (348.15 K) 2.39 ± 0.16; (358.15 K) 2.4 ± 0.16; (368.15 K) 2.41 ± 0.16. Further, under “378.15 K”, the activity coefficient is 2.42 ± 0.16.

For the molecule `C1CCCCC1` [cyclohexane] + O=S(=O)([N-]S(=O)(=O)C(F)(F)F)C(F)(F)F.OCCC[n+]1ccccc1, the activity coefficient runs as follows: (308.15 K) 25.5 ± 1.7; (318.15 K) 23.2 ± 1.6; (328.15 K) 21.1 ± 1.4; (338.15 K) 19.4 ± 1.3; (348.15 K) 17.9 ± 1.2; (358.15 K) 16.7 ± 1.1. In addition, where the note is “368.15 K”, the activity coefficient is 15.5 ± 1.1.

Regarding `c1ccccc1` [benzene] + O=S(=O)([N-]S(=O)(=O)C(F)(F)F)C(F)(F)F.OCCC[n+]1ccccc1, the activity coefficient runs as follows: (318.15 K) 1.58 ± 0.1; (328.15 K) 1.58 ± 0.1; (338.15 K) 1.59 ± 0.11; (348.15 K) 1.6 ± 0.11; (358.15 K) 1.61 ± 0.11; (368.15 K) 1.62 ± 0.11. Further, the activity coefficient (378.15 K) was found to be 1.62 ± 0.11.

As to `CC(C)=O` [acetone] + O=S(=O)([N-]S(=O)(=O)C(F)(F)F)C(F)(F)F.OCCC[n+]1ccccc1, the activity coefficient was 0.403 ± 0.034 (318.15 K); 0.421 ± 0.035 (328.15 K); 0.437 ± 0.035 (338.15 K); 0.453 ± 0.036 (348.15 K); 0.469 ± 0.037 (358.15 K); 0.484 ± 0.037 (368.15 K). In addition, the activity coefficient (378.15 K) stood at 0.5 ± 0.038.

In the case of `C1CCCCCCC1` [cyclooctane] + O=S(=O)([N-]S(=O)(=O)C(F)(F)F)C(F)(F)F.OCCC[n+]1ccccc1, the activity coefficient (308.15 K) turned out to be 51.9 ± 3.6; the activity coefficient (318.15 K) amounted to 46.4 ± 3.2; the activity coefficient (328.15 K) worked out at 41.6 ± 2.8; the activity coefficient (338.15 K) amounted to 37.3 ± 2.6; the activity coefficient (348.15 K) was found to be 34 ± 2.3; the activity coefficient (358.15 K) is 31.3 ± 2.1. The activity coefficient (368.15 K) came out at 28.6 ± 2.

For `CCCOCCC` [dipropyl ether] + O=S(=O)([N-]S(=O)(=O)C(F)(F)F)C(F)(F)F.OCCC[n+]1ccccc1, the activity coefficient runs as follows: (308.15 K) 9.62 ± 0.66; (318.15 K) 9.45 ± 0.64; (328.15 K) 9.28 ± 0.63; (338.15 K) 9.12 ± 0.62; (348.15 K) 8.99 ± 0.61; (358.15 K) 8.87 ± 0.61. Further, under “368.15 K”, the activity coefficient is 8.75 ± 0.6.

In the case of `C=CCCCC` [hex-1-ene] + O=S(=O)([N-]S(=O)(=O)C(F)(F)F)C(F)(F)F.OCCC[n+]1ccccc1, the activity coefficient was 22.7 ± 1.6 (308.15 K); 21.2 ± 1.4 (318.15 K); 19.7 ± 1.3 (328.15 K); 18.4 ± 1.3 (338.15 K); 17.3 ± 1.2 (348.15 K); 16.4 ± 1.1 (358.15 K).

As to `CCCCCCCC` [octane] + O=S(=O)([N-]S(=O)(=O)C(F)(F)F)C(F)(F)F.OCCC[n+]1ccccc1, the activity coefficient by setting is: (308.15 K) 130 ± 9; (318.15 K) 116 ± 8; (328.15 K) 102 ± 7; (338.15 K) 91.1 ± 6.2; (348.15 K) 81.3 ± 5.6; (358.15 K) 73.6 ± 5. For the same molecule, for the setting “368.15 K”, the activity coefficient is 67.5 ± 4.6.

As to `Cc1ccc(C)cc1` [1,4-dimethylbenzene] + O=S(=O)([N-]S(=O)(=O)C(F)(F)F)C(F)(F)F.OCCC[n+]1ccccc1, the activity coefficient runs as follows: (318.15 K) 3.58 ± 0.24; (328.15 K) 3.6 ± 0.25; (338.15 K) 3.61 ± 0.25; (348.15 K) 3.62 ± 0.25; (358.15 K) 3.63 ± 0.25; (368.15 K) 3.64 ± 0.25. In addition, the activity coefficient (378.15 K) amounted to 3.65 ± 0.25.

In the case of `O` [water] + O=S(=O)([N-]S(=O)(=O)C(F)(F)F)C(F)(F)F.OCCC[n+]1ccccc1, the activity coefficient amounted to 1.53 ± 0.1 (318.15 K); 1.42 ± 0.09 (328.15 K); 1.33 ± 0.09 (338.15 K); 1.24 ± 0.08 (348.15 K); 1.17 ± 0.07 (358.15 K); 1.1 ± 0.07 (368.15 K). In addition, the activity coefficient (378.15 K) came out at 1.03 ± 0.06.

Take `CCC(C)(C)OC` [2-methoxy-2-methylbutane] + O=S(=O)([N-]S(=O)(=O)C(F)(F)F)C(F)(F)F.OCCC[n+]1ccccc1: the activity coefficient (308.15 K) was 4.37 ± 0.3; the activity coefficient (318.15 K) amounted to 4.45 ± 0.3; the activity coefficient (328.15 K) worked out at 4.54 ± 0.31; the activity coefficient (338.15 K) came out at 4.61 ± 0.31; the activity coefficient (348.15 K) amounted to 4.7 ± 0.32; the activity coefficient (358.15 K) is 4.77 ± 0.33. In addition, the activity coefficient (368.15 K) worked out at 4.84 ± 0.33.
